Experimental data reported in ChEMBL document CHEMBL6087487, “Discovery of a 2'-α-Fluoro-2'-β-C-(fluoromethyl) Purine Nucleotide Prodrug as a Potential Oral Anti-SARS-CoV-2 Agent” (J Med Chem, 2025).
Active and inactive are the calls of the source. The calls are words filed in the database; no cut-off is given here.

Assays:
[1] = Cytotoxicity against HPAEpiC cells incubated for 72 hrs by CCK8 assay; assay type: toxicity, cell-based; settings: human
Vero C1008 = assay: Cytotoxicity against African green monkey Vero E6 cells at 100 uM incubated for 72 hrs by CCK8 assay; assay type: toxicity, cell-based; settings: chlorocebus sabaeus, vero c1008, 72 h
[2] = biological target: Nucleoprotein (Severe acute respiratory syndrome coronavirus 2) (UniProt P0DTC9); assay: Inhibition of SARS-CoV-2 N protein by Western blot analysis; settings: dose 1-250 nM
SARS-CoV-2 = assay: Antiviral activity against SARS-CoV-2 Omicron BA.5 infected in K18-hACE2 transgenic mouse assessed as protection against viral infection compound administered 2 hrs post-infection and continued till 7 days post-infection; assay type: functional, organism-based; settings: Severe acute respiratory syndrome coronavirus 2, dose 20-60 mg/kg, time 166.0 hrs
[3] = Toxicity in K18-hACE2 transgenic mouse infected with SARS-CoV-2 Omicron BA.5 assessed as body weight change at 40 to 60 mg/kg compound administered 2 hrs post-infection and continued till 7 days post-infection; assay type: organism-based; settings: in vivo, 166 h, dose 40-60 mg/kg
[4] = Toxicity in K18-hACE2 transgenic mouse infected with SARS-CoV-2 Omicron BA.5 assessed as animal survival at 40 to 60 mg/kg compound administered 2 hrs post-infection and continued till 7 days post-infection; assay type: organism-based; settings: in vivo, 166 h, dose 40-60 mg/kg
[5] = Toxicity in K18-hACE2 transgenic mouse infected with SARS-CoV-2 Omicron BA.5 assessed as animal survival at 20 mg/kg compound administered 2 hrs post-infection and continued till 7 days post-infection; assay type: organism-based; settings: in vivo, 166 h
[6] = Acute toxicity in Sprague-Dawley rat assessed as animal mortality at 500 to 2000 mg/kg, po measured for 14 days; assay type: organism-based; settings: in vivo, 336 h, dose 500-2000 mg/kg, time 14 day
[7] = Acute toxicity in Sprague-Dawley rat assessed as side effects at 500 to 2000 mg/kg, po measured for 14 days; assay type: organism-based; settings: in vivo, 336 h, dose 500-2000 mg/kg, time 14 day
[8] = Acute toxicity in Sprague-Dawley rat assessed as body weight change at 500 to 2000 mg/kg, po measured for 14 days; assay type: organism-based; settings: in vivo, 336 h, dose 500-2000 mg/kg, time 14 day
[9] = Acute toxicity in Sprague-Dawley rat assessed as hematological change at 500 to 2000 mg/kg, po measured for 14 days; assay type: organism-based; settings: in vivo, 336 h, dose 500-2000 mg/kg, time 14 day
[10] = Acute toxicity in Sprague-Dawley rat assessed as blood biochemical change at 500 to 2000 mg/kg, po measured for 14 days; assay type: organism-based; settings: in vivo, 336 h, dose 500-2000 mg/kg, time 14 day
[11] = Acute toxicity in Sprague-Dawley rat assessed as damage in heart at 500 to 2000 mg/kg, po measured for 14 days by H and E staining based analysis; assay type: organism-based; settings: in vivo, 336 h, dose 500-2000 mg/kg, time 14 day
[12] = Acute toxicity in Sprague-Dawley rat assessed as damage in liver at 500 to 2000 mg/kg, po measured for 14 days by H and E staining based analysis; assay type: organism-based; settings: in vivo, 336 h, dose 500-2000 mg/kg, time 14 day
[13] = Acute toxicity in Sprague-Dawley rat assessed as damage in spleen at 500 to 2000 mg/kg, po measured for 14 days by H and E staining based analysis; assay type: organism-based; settings: in vivo, 336 h, dose 500-2000 mg/kg, time 14 day
[14] = Acute toxicity in Sprague-Dawley rat assessed as damage in lung at 500 to 2000 mg/kg, po measured for 14 days by H and E staining based analysis; assay type: organism-based; settings: in vivo, 336 h, dose 500-2000 mg/kg, time 14 day
[15] = Acute toxicity in Sprague-Dawley rat assessed as damage in kidney at 500 to 2000 mg/kg, po measured for 14 days by H and E staining based analysis; assay type: organism-based; settings: in vivo, 336 h, dose 500-2000 mg/kg, time 14 day
[16] = Acute toxicity in Sprague-Dawley rat assessed as drug tolerance upto 2000 mg/kg, po measured for 14 days; assay type: organism-based; settings: in vivo, 336 h, time 14 day
[17] = Prodrug conversion in Sprague-Dawley rat assessed as half life of nucleoside triphosphate at 40 mg/kg, po measured after 0.5 to 24 hrs by LC-MS/MS analysis; assay type: ADME, organism-based; settings: in vivo, time 0.5-24 hrs
[18] = Prodrug conversion in Sprague-Dawley rat assessed as Tmax of nucleoside triphosphate at 40 mg/kg, po measured after 0.5 to 24 hrs by LC-MS/MS analysis; assay type: ADME, organism-based; settings: in vivo, time 0.5-24 hrs
[19] = Prodrug conversion in Sprague-Dawley rat assessed as Cmax of nucleoside triphosphate at 40 mg/kg, po measured after 0.5 to 24 hrs by LC-MS/MS analysis; assay type: ADME, organism-based; settings: in vivo, time 0.5-24 hrs
[20] = Prodrug conversion in Sprague-Dawley rat assessed as AUClast of nucleoside triphosphate at 40 mg/kg, po measured after 0.5 to 24 hrs by LC-MS/MS analysis; assay type: ADME, organism-based; settings: in vivo, time 0.5-24 hrs
[21] = Prodrug conversion in Sprague-Dawley rat assessed as AUC (0 to infinity) of nucleoside triphosphate at 40 mg/kg, po measured after 0.5 to 24 hrs by LC-MS/MS analysis; assay type: ADME, organism-based; settings: in vivo, time 0.5-24 hrs
[22] = Cytotoxicity against African green monkey Vero E6 cells incubated for 72 hrs by CCK8 assay; assay type: toxicity, cell-based, Vero C1008; settings: chlorocebus sabaeus
[23] = test system: Severe acute respiratory syndrome coronavirus 2; assay: Inhibition of SARS-CoV-2 central replication transcription complex of nsp12/nsp7/nsp8(2) using RNA template as substrate assessed as decrease in RdRp polymerization at 3 mM pretreated for 10 mins followed by NTP addition measured after 20 mins by RNA extension assay relative to control; settings: time 30.0 min
[24] = test system: Severe acute respiratory syndrome coronavirus 2; assay: Inhibition of SARS-CoV-2 central replication transcription complex of nsp12/nsp7/nsp8(2) using RNA template as substrate assessed as decrease in RdRp polymerization at 62.5 to 1000 uM by RNA extension assay; settings: dose 62.5-1000 µM

In the case of CNc1nc(N)nc2c1ncn2[C@@H]1O[C@H](CO[P@@](=O)(N[C@@H](C)C(=O)OC(C)C)Oc2ccccc2)[C@@H](O)[C@]1(F)CF.O=S(=O)(O)O, the CC50 at 72 h [1] is reported as greater than 200 µM, the Activity (Vero C1008) is reported as “Non-toxic” and the inhibition [2] is reported as “Dose-dependent-effect”. For the same molecule, the Activity (SARS-CoV-2) was “Dose-dependent-effect”, the Activity [3] was “Non-toxic” and the Survival [4] was 100%. For the same molecule, the Survival [5] was greater than 50%, the Activity [6] was “Non-toxic” and the Activity [7] was “Non-toxic”. The Activity [8] was “Non-toxic”, the Activity [9] was “Non-toxic” and the Activity [10] was “Non-toxic”. The Activity [11] was “Non-toxic”, the Activity [12] was “Non-toxic” and the Activity [13] was “Non-toxic”. For the same molecule, the Activity [14] was “Non-toxic”, the Activity [15] was “Non-toxic” and the Activity [16] was “Non-toxic”. It also gave a t1/2 [17] of 45.7 h, a Tmax [18] of 2.67 h and a Cmax [19] of 6.5 µg/g. For the same molecule, the AUClast [20] was 66.13 µg·h/g and the AUC [21] was 223 µg·h/g.

In the case of CCC(CC)COC(=O)[C@H](C)N[P@](=O)(OC[C@H]1O[C@@](C#N)(c2ccc3c(N)ncnn23)[C@H](O)[C@@H]1O)Oc1ccccc1 [REMDESIVIR], the CC50 at 72 h [22] is reported as 42 µM.

With CNc1nc(N)nc2c1ncn2[C@@H]1O[C@H](COP(=O)(O)OP(=O)(O)OP(=O)(O)OP(=O)(O)O)[C@@H](O)[C@]1(F)CF the inhibition [23] was 100% and the inhibition [24] was “inactive”.
